PubChem BioAssay (NCI)
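All cell lines were grown in 96-well plates and treated with compound for 48 hours. GI50: concentration for 50% inhibition of growth. TGI marks complete inhibition of growth.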

Columns and labels:
Assay in all cases: growth of human tumour cells (NCI), 48 h
[1] = system: CAKI-1 renal
[2] = system: UACC-62 melanoma
[3] = system: RXF 393 renal
[4] = system: SN12C renal
[5] = system: SW-620 colon
[6] = system: MOLT-4 leukemia
[7] = system: BT-549 breast
[8] = system: ACHN renal
[9] = system: A549 NSCLC
[10] = system: CCRF-CEM leukemia
[11] = system: SF-295 CNS
[12] = system: KM12 colon
[13] = system: HL-60(TB) leukemia
[14] = system: RPMI-8226 leukemia
[15] = system: SK-MEL-5 melanoma
[16] = system: HOP-62 NSCLC
[17] = system: SK-OV-3 ovarian
[18] = system: NCI-H522 lung
[19] = system: TK-10 renal
[20] = system: UACC-257 melanoma
[21] = system: T-47D breast
[22] = system: IGROV1 ovarian
[23] = system: HT29 colon
[24] = system: DU-145 prostate
[25] = system: HS 578T breast
[26] = system: SF-268 CNS
[27] = system: OVCAR-8 ovarian
[28] = system: 786-0 renal
[29] = system: U251 CNS
[30] = system: EKVX NSCLC
[31] = system: SNB-75 CNS
[32] = system: HCC-2998 colon
[33] = system: OVCAR-4 ovarian
[34] = system: OVCAR-5 ovarian
[35] = system: NCI-H460 lung
[36] = system: MDA-MB-231 breast
[37] = system: MALME-3M melanoma
[38] = system: SF-539 CNS
[39] = system: A498 renal
[40] = system: SNB-19 CNS
[41] = system: MDA-MB-435
[42] = system: MCF7 breast
[43] = system: NCI/ADR-RES ovarian
[44] = system: HOP-92 NSCLC
[45] = system: UO-31 renal
[46] = system: HCT-116 colon
[47] = system: COLO 205 colon
[48] = system: K-562 leukemia
[49] = system: NCI-H23 lung
[50] = system: M14 melanoma
[51] = system: PC-3 prostate
[52] = system: SK-MEL-28 melanoma
[53] = system: SK-MEL-2 melanoma
[54] = system: LOX IMVI melanoma
[55] = system: NCI-H226 lung
[56] = system: HCT-15 colon
[57] = system: SR leukemia

CCCCCc1ccc(S(=O)(=O)N(C(C)=O)c2cccc(-c3csc(N(CCN4CCN(C)CC4)C(C)=O)n3)c2)cc1
GI50 [1]: 2.93 µM | TGI [1]: 6.2 µM | GI50 [2]: 4.21 µM | TGI [2]: 7.79 µM | GI50 [3]: 1.19 µM | TGI [3]: 4.35 µM | GI50 [4]: 3.4 µM | TGI [4]: 6.75 µM | GI50 [5]: 0.824 µM | TGI [5]: 3.19 µM | GI50 [6]: 1.22 µM | TGI [6]: 5.26 µM | GI50 [7]: 2.94 µM | TGI [7]: 6.04 µM | GI50 [8]: 3.52 µM | TGI [8]: 6.77 µM | GI50 [9]: 3.03 µM | TGI [9]: 6.27 µM | GI50 [10]: 1.95 µM | TGI [10]: 7.49 µM | GI50 [11]: 3.63 µM | TGI [11]: 7.15 µM | GI50 [12]: 4.04 µM | TGI [12]: 8.04 µM | GI50 [13]: 0.991 µM | TGI [13]: 4.51 µM | GI50 [14]: 2.5 µM | TGI [14]: 7.53 µM | GI50 [15]: 3.31 µM | TGI [15]: 6.57 µM | GI50 [16]: 3.58 µM | TGI [16]: 7.3 µM | GI50 [17]: 4.04 µM | TGI [17]: 7.64 µM | GI50 [18]: 3.91 µM | TGI [18]: 7.55 µM | GI50 [19]: 4.08 µM | TGI [19]: 7.57 µM | GI50 [20]: 4.37 µM | TGI [20]: 8.1 µM | GI50 [21]: 2.79 µM | TGI [21]: 6.73 µM | GI50 [22]: 2.96 µM | TGI [22]: 6.61 µM | GI50 [23]: 0.856 µM | TGI [23]: 2.71 µM | GI50 [24]: 3.48 µM | TGI [24]: 6.81 µM | GI50 [25]: 3.3 µM | TGI [25]: 10.8 µM | GI50 [26]: 3.56 µM | TGI [26]: 7.6 µM | GI50 [27]: 3.51 µM | TGI [27]: 6.95 µM | GI50 [28]: 0.642 µM | TGI [28]: 2 µM | GI50 [29]: 2.75 µM | TGI [29]: 5.81 µM | GI50 [30]: 3.79 µM | TGI [30]: 7.27 µM | GI50 [31]: 1.06 µM | TGI [31]: 5.21 µM | GI50 [32]: 1.15 µM | TGI [32]: 4.07 µM | GI50 [33]: 3.49 µM | TGI [33]: 7.42 µM | GI50 [34]: 3.5 µM | TGI [34]: 6.81 µM | GI50 [35]: 1.4 µM | TGI [35]: 4.61 µM | GI50 [36]: 2.64 µM | TGI [36]: 5.96 µM | GI50 [37]: 1.58 µM | TGI [37]: 5.04 µM | GI50 [38]: 3.64 µM | TGI [38]: 7.01 µM | GI50 [39]: 1.24 µM | TGI [39]: 4.75 µM | GI50 [40]: 3.63 µM | TGI [40]: 7.14 µM | GI50 [41]: 0.987 µM | TGI [41]: 3.74 µM | GI50 [42]: 0.83 µM | TGI [42]: 3.3 µM | GI50 [43]: 3.5 µM | TGI [43]: 7.55 µM | GI50 [44]: 1.06 µM | TGI [44]: 4.62 µM | GI50 [45]: 2.86 µM | TGI [45]: 5.96 µM | GI50 [46]: 0.929 µM | TGI [46]: 3.41 µM | GI50 [47]: 0.815 µM | TGI [47]: 2.96 µM | GI50 [48]: 0.751 µM | TGI [48]: 3.01 µM | GI50 [49]: 3.8 µM | TGI [49]: 7.39 µM | GI50 [50]: 2.23 µM | TGI [50]: 5.64 µM | GI50 [51]: 3.32 µM | TGI [51]: 7.06 µM | GI50 [52]: 3.07 µM | TGI [52]: 6.22 µM | GI50 [53]: 3.99 µM | TGI [53]: 7.44 µM | GI50 [54]: 0.085 µM | TGI [54]: 1.26 µM | GI50 [55]: 4.09 µM | TGI [55]: 8.82 µM | GI50 [56]: 0.837 µM | TGI [56]: 2.98 µM

CCCCCc1ccc(S(=O)(=O)Nc2cc(-c3csc(NC(=O)CN4CCN(C)CC4)n3)ccc2OC)cc1
GI50 [1]: 0.869 µM | TGI [1]: 1.97 µM | GI50 [2]: 0.969 µM | TGI [2]: 1.98 µM | GI50 [3]: 0.717 µM | TGI [3]: 1.5 µM | GI50 [4]: 1.14 µM | TGI [4]: 2.77 µM | GI50 [5]: 0.867 µM | TGI [5]: 1.69 µM | GI50 [6]: 1.49 µM | TGI [6]: 4.54 µM | GI50 [7]: 2.52 µM | TGI [7]: 11.2 µM | GI50 [8]: 0.957 µM | TGI [8]: 1.98 µM | GI50 [9]: 1.43 µM | TGI [9]: 5.48 µM | GI50 [10]: 1.24 µM | TGI [10]: 3.92 µM | GI50 [11]: 0.993 µM | TGI [11]: 2.01 µM | GI50 [12]: 1.21 µM | TGI [12]: 2.92 µM | GI50 [13]: 1.07 µM | TGI [13]: 2.34 µM | GI50 [14]: 0.925 µM | TGI [14]: 2.16 µM | GI50 [15]: 0.892 µM | TGI [15]: 1.61 µM | GI50 [16]: 0.915 µM | TGI [16]: 1.86 µM | GI50 [17]: 5.14 µM | TGI [17]: 13 µM | GI50 [18]: 0.889 µM | TGI [18]: 1.7 µM | GI50 [57]: 0.993 µM | TGI [57]: 2.62 µM | GI50 [19]: 1.41 µM | TGI [19]: 5.1 µM | GI50 [20]: 0.85 µM | TGI [20]: 1.64 µM | GI50 [21]: 0.921 µM | TGI [21]: 2.06 µM | GI50 [22]: 1.19 µM | TGI [22]: 3.51 µM | GI50 [23]: 0.871 µM | TGI [23]: 1.68 µM | GI50 [24]: 1.62 µM | TGI [24]: 4.96 µM | GI50 [25]: 0.919 µM | TGI [25]: 2.19 µM | GI50 [26]: 0.898 µM | TGI [26]: 1.92 µM | GI50 [27]: 1.28 µM | TGI [27]: 3.65 µM | GI50 [28]: 0.884 µM | TGI [28]: 1.64 µM | GI50 [29]: 0.901 µM | TGI [29]: 1.91 µM | GI50 [30]: 1.92 µM | TGI [30]: 9.16 µM | GI50 [31]: 1.07 µM | TGI [31]: 4.47 µM | GI50 [32]: 0.986 µM | TGI [32]: 1.97 µM | GI50 [33]: 1.31 µM | TGI [33]: 4.1 µM | GI50 [34]: 1.54 µM | TGI [34]: 5.35 µM | GI50 [35]: 0.924 µM | TGI [35]: 1.77 µM | GI50 [36]: 0.992 µM | TGI [36]: 2.34 µM | GI50 [37]: 0.788 µM | TGI [37]: 1.52 µM | GI50 [38]: 0.859 µM | TGI [38]: 1.61 µM | GI50 [39]: 5.41 µM | TGI [39]: 12.2 µM | GI50 [40]: 1.26 µM | TGI [40]: 3.74 µM | GI50 [41]: 0.878 µM | TGI [41]: 1.64 µM | GI50 [42]: 0.937 µM | TGI [42]: 1.95 µM | GI50 [43]: 2.37 µM | TGI [43]: 9.89 µM | GI50 [44]: 0.857 µM | TGI [44]: 1.96 µM | GI50 [45]: 0.736 µM | TGI [45]: 1.61 µM | GI50 [46]: 0.876 µM | TGI [46]: 1.65 µM | GI50 [47]: 0.821 µM | TGI [47]: 1.68 µM | GI50 [49]: 1.84 µM | TGI [49]: 7.12 µM | GI50 [50]: 0.887 µM | TGI [50]: 1.7 µM | GI50 [51]: 1.8 µM | TGI [51]: 7.42 µM | GI50 [52]: 0.873 µM | TGI [52]: 1.62 µM | GI50 [53]: 0.867 µM | TGI [53]: 1.65 µM | GI50 [54]: 0.866 µM | TGI [54]: 1.63 µM | GI50 [55]: 6.89 µM | TGI [55]: 17.6 µM | GI50 [56]: 0.976 µM | TGI [56]: 2.09 µM
